# Test results taken from PubChem BioAssay AID1963443 (Molecular Pharmacology Branch, DTP, NCI, 2024).
# Several values for one entry are separate records, joined by “and”; a condition that tells them apart may be missing. Identical values can stand only once.
# Tested on: MDA-MB-231 complex spheroids, growth inhibition
# Experiment: Anticancer human tumor MDA-MB-231 cell line growth inhibition [Asc];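 note: spheroids exposed to compounds for 7 days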
# Conditions: for viability, T/C: stronger effect = lower value
# Method in brief: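 Complex spheroids combining tumor cells with HUVEC endothelial cells and human MSCs, at 37 degrees C, 5% CO2; agents tested alone or combined, half-log dilutions from at or near clinical Cmax, or 10 microM if Cmax unknown.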
structure (smiles),measurement,setting,value
C#Cc1c(F)ccc2cc(O)cc(-c3ncc4c(N5CC6CCC(C5)N6)nc(OCC56CCCN5CC(F)C6)nc4c3F)c12 (centres undefined) + CNC(C)C(=O)NC1CN(S(=O)(=O)c2cccc(S(=O)(=O)N3CCC4CCC(C(=O)NC(c5ccccc5)c5ccccc5)N4C(=O)C(NC(=O)C(C)NC)C3)c2)CCC2CCC(C(=O)NC(c3ccccc3)c3ccccc3)N2C1=O,IC50,"curve of first compound, second compound 0.00316 µM",< 31.6 nM
same,IC50,"curve of first compound, second compound 0.01 µM",< 31.6 nM
same,IC50,"curve of first compound, second compound 0.0316 µM",< 31.6 nM
same,IC50,"curve of first compound, second compound 0.1 µM",< 31.6 nM
same,IC50,"curve of first compound, second compound 0.316 µM",3780 nM
same,IC50,"curve of first compound, second compound 1 µM",2970 nM
same,"viability, T/C","second compound 0.00316 µM, first compound 0.0316 µM",4.06%
same,"viability, T/C","second compound 0.00316 µM, first compound 0.1 µM",5.16%
same,"viability, T/C","second compound 0.00316 µM, first compound 0.316 µM",5.29%
same,"viability, T/C","second compound 0.00316 µM, first compound 1 µM",3.82%
same,"viability, T/C","second compound 0.00316 µM, first compound 3.16 µM",2.11%
same,"viability, T/C","second compound 0.00316 µM, first compound 10 µM",1.85%
same,"viability, T/C","second compound 0.01 µM, first compound 0.0316 µM",1.96%
same,"viability, T/C","second compound 0.01 µM, first compound 0.1 µM",2.54%
same,"viability, T/C","second compound 0.01 µM, first compound 0.316 µM",2.18%
same,"viability, T/C","second compound 0.01 µM, first compound 1 µM",3.28%
same,"viability, T/C","second compound 0.01 µM, first compound 3.16 µM",2.31%
same,"viability, T/C","second compound 0.01 µM, first compound 10 µM",1.91%
same,"viability, T/C","second compound 0.0316 µM, first compound 0.0316 µM",1.62%
same,"viability, T/C","second compound 0.0316 µM, first compound 0.1 µM",2.61%
same,"viability, T/C","second compound 0.0316 µM, first compound 0.316 µM",2.63%
same,"viability, T/C","second compound 0.0316 µM, first compound 1 µM",1.93%
same,"viability, T/C","second compound 0.0316 µM, first compound 3.16 µM",2.58%
same,"viability, T/C","second compound 0.0316 µM, first compound 10 µM",1.22%
same,"viability, T/C","second compound 0.1 µM, first compound 0.0316 µM",1.38%
same,"viability, T/C","second compound 0.1 µM, first compound 0.1 µM",1.67%
same,"viability, T/C","second compound 0.1 µM, first compound 0.316 µM",1.43%
same,"viability, T/C","second compound 0.1 µM, first compound 1 µM",1.74%
same,"viability, T/C","second compound 0.1 µM, first compound 3.16 µM",1.84%
same,"viability, T/C","second compound 0.1 µM, first compound 10 µM",2.09%
same,"viability, T/C","second compound 0.316 µM, first compound 0.0316 µM",112%
same,"viability, T/C","second compound 0.316 µM, first compound 0.1 µM",94.9%
same,"viability, T/C","second compound 0.316 µM, first compound 0.316 µM",96%
same,"viability, T/C","second compound 0.316 µM, first compound 1 µM",73%
same,"viability, T/C","second compound 0.316 µM, first compound 3.16 µM",51.6%
same,"viability, T/C","second compound 0.316 µM, first compound 10 µM",34.9%
same,"viability, T/C","second compound 1 µM, first compound 0.0316 µM",99.6%
same,"viability, T/C","second compound 1 µM, first compound 0.1 µM",110%
same,"viability, T/C","second compound 1 µM, first compound 0.316 µM",97.2%
same,"viability, T/C","second compound 1 µM, first compound 1 µM",68.8%
same,"viability, T/C","second compound 1 µM, first compound 3.16 µM",53.4%
same,"viability, T/C","second compound 1 µM, first compound 10 µM",38.7%
Cc1nc(N2CCC3(CC2)COC(C)C3N)c(CO)nc1Sc1ccnc(N)c1Cl (centres undefined),"viability, T/C",compound 0.00949 µM,122% and 98.3% and 98%
same,"viability, T/C",compound 0.03 µM,117% and 93.5% and 101%
same,"viability, T/C",compound 0.0949 µM,111% and 94.2% and 94.4%
same,"viability, T/C",compound 0.3 µM,63.3% and 47.9% and 61.2%
same,"viability, T/C",compound 0.949 µM,3.21% and 2.3% and 2.69%
same,"viability, T/C",compound 3 µM,0.89% and 1.08% and 0.76%
same,IC50,curve of compound,386 nM and 285 nM and 373 nM
